Test results as given in patent publication US20250092085A1, “SAPONIN-BASED ADJUVANTS AND VACCINES” (ASOCIACIÓN CENTRO DE INVESTIGACIÓN COOPERATIVA EN …, priority 2021, published 2025).

Tested on: anti-OVA IgG antibody response (chicken ovalbumin (OVA) as model antigen)
Experiment: In vivo experiment 1: adjuvant activity, anti-OVA IgG antibody production (ELISA of mouse sera)
Parameters: species or system C75BL6 mice
Conditions: toxin-free OVA 20 μg + adjuvant 50 μg, three bi-weekly subcutaneous injections, endpoint sera day 42; compared with OVA alone and OVA + prior art compound 13
Protocol: Total IgG values were calculated using chicken ovalbumin (OVA) as a model antigen for four groups of mice treated with the following subcutaneous injections: i) toxin-free OVA antigen (20 μg) in combination with the known QA-based adjuvant 13 (50 μg) (identified as QA+OVA), ii) toxin-free OVA antigen (20 μg) in combination with the new adjuvant 25 (50 μg) (identified as QA(oxime)+OVA), iii) toxin-free OVA (20 μg) alone as no-adjuvant control group (identified as OVA) and iv) PBS only as negative control (identified as PBS).
Quantification of antibody production. Antibody titers against OVA protein, or against MUC1 and TnMUC1 peptides in the case of the self-adjuvanting vaccine constructs. were measured by an indirect enzyme-linked immunosorbent assay (ELISA). […] Absorbance (OD, 450 nm) was immediately measured using a BioTek® Synergy HT multi-detection microplate reader.
A straightforward proof-of-principle in vivo experiment was carried out to directly compare the adjuvant activities of prior art compound 13 and the compound of the invention 25 in terms of IgG antibody production, using chicken ovalbumin (OVA) as a model antigen. […] Endpoint sera after three immunizations were probed via ELISA assays by coating 96-well plates with toxin-free OVA (0.5 μg/ml) and total IgG optical density (OD) values (day 42) were calculated (FIG. 4).

C[C@H]1O[C@@H](OC2C(OC(=O)[C@]34CCC(C)(C)CC3C3=CCC5C6(C)CC[C@H](O)C(C)(C=NO)[C@@H]6CC[C@@]5(C)[C@]3(C)C[C@@H]4O)O[C@H](CO)[C@H](NC(=O)CCCCCCCCCCC(=O)O)C2O)C(O)C(O)[C@H]1O[C@@H]1OC[C@@H](O)C(O)C1O (stereo partly shown) [Compound 25]
anti-OVA IgG antibody response (total IgG optical density values): significantly higher
